US20260193293A1, “PEPTIDES CAPABLE OF INHIBITING PROTEIN-PROTEIN INTERACTIONS AT GABAB1A SUBUNIT AND USES THEREOF” (UNIVERSITY OF COPENHAGEN, priority 2022, published 2026)
Read-outs that look alike come from different tables or passages of the source. Non-standard residues stand in square brackets, D forms with d. Residues, ends and D or L forms follow the SMILES beside them. NMeD = CN[C@@H](CC(=O)O)C(=O)O; Sar = CNCC(=O)O

Target: Sushi domains (SD1/2) protein
Assay: Fluorescence polarization (FP) competition assay with AJAP-1probe, calculated Ki
Type: binding
Method in brief: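 Competition against 25 nM TAMRA-labelled peptide probe binding SD1/2, in PBS pH 7.4 with 1% BSA at rt, read at 530/580 nm. IC50 from sigmoidal dose-response fits, at least triplicate; Ki calculated from IC50 using probe Kd from saturation binding.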

[1] = Table 7, Ala-, D-amino acids and N-methylation scans of APPWT, read-out: Ki (nM) mean ± SEM
[2] = Table 11, deep mutational scanning validation variants of AJAP-1WT, read-out: Ki (nM) mean ± SEM
[3] = Table 4, truncation and elongation scans of APP epitope, read-out: Ki (nM) mean ± SEM
[4] = Table 9, Ala-, D-amino acids and N-methylation scans of PIANPWT, read-out: Ki (nM) mean ± SEM
[5] = Table 8, Ala-, D-amino acids and N-methylation scans of AJAP-1WT, read-out: Ki (nM) mean ± SEM
[6] = Table 5, elongation and truncation scan of AJAP-1 binding epitope, read-out: Ki (nM) mean ± SEM

CC(=O)N[C@@H](CCC(=O)O)C(=O)N[C@@H](CC(=O)O)C(=O)N[C@@H](CC(=O)O)C(=O)N[C@@H](CO)C(=O)N[C@@H](CC(=O)O)C(=O)N[C@H](C(=O)N[C@@H](Cc1c[nH]c2ccccc12)C(=O)N[C@@H](Cc1c[nH]c2ccccc12)C(=O)NCC(=O)NCC(=O)N[C@@H](C)C(=O)N(C)[C@@H](CC(=O)O)C(=O)N[C@H](C(=O)N[C@@H](CC(=O)O)C(N)=O)[C@@H](C)O)C(C)C (Ac-EDDSDVWWGGA[NMeD]TD-NH2)
Ki [1]: 403 ± 14 nM

CC[C@H](C)[C@H](NC(=O)[C@H](Cc1ccccc1)NC(=O)[C@H](CCC(=O)O)NC(=O)[C@@H](NC(=O)[C@H](CCC(=O)O)NC(C)=O)[C@@H](C)O)C(=O)N[C@@H](C)C(=O)N[C@@H](Cc1c[nH]c2ccccc12)C(=O)NCC(=O)N1CCC[C@H]1C(=O)N[C@H](C(=O)NCC(=O)N[C@@H](Cc1ccc(O)cc1)C(=O)N[C@@H](CCC(=O)O)C(=O)N[C@@H](CC(=O)O)C(N)=O)[C@@H](C)O [ETEFIAWGPTGYED] (Ac-ETEFIAWGPTGYED-NH2)
Ki [2]: 41 ± 1 nM

CC(=O)N[C@@H](CO)C(=O)N[C@@H](C)C(=O)N[C@@H](CC(=O)O)C(=O)N[C@@H](C)C(=O)N[C@@H](CCC(=O)O)C(=O)N[C@@H](CCC(=O)O)C(=O)N[C@@H](CC(=O)O)C(=O)N[C@@H](CC(=O)O)C(=O)N[C@@H](CO)C(=O)N[C@@H](CC(=O)O)C(=O)N[C@H](C(=O)N[C@@H](Cc1c[nH]c2ccccc12)C(=O)N[C@@H](Cc1c[nH]c2ccccc12)C(=O)NCC(=O)NCC(=O)N[C@@H](C)C(=O)N[C@@H](CC(=O)O)C(=O)N[C@H](C(=O)N[C@@H](CC(=O)O)C(=O)N[C@@H](Cc1ccc(O)cc1)C(=O)N[C@@H](C)C(=O)N[C@@H](CC(=O)O)C(N)=O)[C@@H](C)O)C(C)C (Ac-SADAEEDDSDVWWGGADTDYAD-NH2)
Ki [3]: 284 ± 5 nM

CC[C@H](C)[C@H](NC(=O)[C@H](C)NC(=O)[C@H](Cc1c[nH]c2ccccc12)NC(=O)[C@@H]1CCCN1C(C)=O)C(=O)N[C@H](C(=O)N[C@@H](Cc1c[nH]c2ccccc12)C(=O)NCC(=O)N1CCC[C@H]1C(=O)N[C@H](C(=O)N[C@H](C(=O)N[C@@H](CO)C(=O)N[C@@H](CCCNC(=N)N)C(=O)N[C@@H](C)C(=O)N[C@@H](CC(=O)O)C(N)=O)C(C)C)[C@@H](C)O)C(C)C (Ac-PWAIVWGPTVSRAD-NH2)
Ki [4]: 600 ± 22 nM

CC(=O)N[C@@H](CCC(=O)O)C(=O)N[C@@H](CC(=O)O)C(=O)N[C@@H](CC(=O)O)C(=O)N[C@@H](CO)C(=O)N[C@@H](CC(=O)O)C(=O)N[C@H](C(=O)N[C@@H](Cc1c[nH]c2ccccc12)C(=O)N[C@@H](Cc1c[nH]c2ccccc12)C(=O)NCC(=O)NCC(=O)N[C@@H](C)C(=O)N[C@@H](CC(=O)O)C(=O)N[C@H](C(=O)N[C@@H](C)C(N)=O)[C@@H](C)O)C(C)C (Ac-EDDSDVWWGGADTA-NH2)
Ki [1]: 786 ± 29 nM

CC[C@H](C)[C@H](NC(=O)[C@H](C)NC(=O)[C@H](Cc1c[nH]c2ccccc12)NC(C)=O)C(=O)N[C@H](C(=O)N[C@@H](Cc1c[nH]c2ccccc12)C(=O)NCC(=O)N1CCC[C@H]1C(=O)N[C@H](C(=O)N[C@H](C(=O)N[C@@H](CO)C(=O)N[C@@H](CCCNC(=N)N)C(=O)N[C@@H](CCC(=O)O)C(=O)N[C@@H](CC(=O)O)C(=O)NCC(=O)NCC(N)=O)C(C)C)[C@@H](C)O)C(C)C (Ac-WAIVWGPTVSREDGG-NH2)
Ki (Table 3, SPOT hit validation and previously reported peptides, read-out: Ki (nM) mean ± SEM): 1350 ± 49 nM

CC[C@H](C)[C@H](NC(=O)[C@H](Cc1ccc(O)cc1)NC(=O)[C@H](CCC(=O)O)NC(=O)[C@@H](NC(=O)[C@H](CCC(=O)O)NC(C)=O)[C@@H](C)O)C(=O)N[C@@H](C)C(=O)N[C@@H](Cc1c[nH]c2ccccc12)C(=O)NCC(=O)N1CCC[C@H]1C(=O)N[C@H](C(=O)NCC(=O)N[C@@H](CC(=O)O)C(=O)N[C@@H](CCC(=O)O)C(=O)N[C@@H](CC(=O)O)C(N)=O)[C@@H](C)O [ETEYIAWGPTGDED, Ac-ETEYIAWGPTGDED-NH2] (Ac-ETEYIAWGPTGDED-NH2)
Ki [2]: 18 ± 1 nM

CC[C@H](C)[C@H](NC(=O)[C@H](C)NC(=O)[C@H](Cc1c[nH]c2ccccc12)NC(=O)[C@@H]1CCCN1C(=O)[C@H](Cc1ccc(O)cc1)NC(=O)[C@H](CCC(N)=O)NC(C)=O)C(=O)N[C@H](C(=O)N[C@@H](Cc1c[nH]c2ccccc12)C(=O)NCC(=O)N1CCC[C@H]1C(=O)N[C@H](C(=O)N[C@H](C(=O)N[C@@H](CO)C(=O)N[C@@H](CCCNC(=N)N)C(=O)N[C@@H](CCC(=O)O)C(=O)N[C@@H](CC(=O)O)C(=O)NCC(N)=O)C(C)C)[C@@H](C)O)C(C)C (Ac-QYPWAIVWGPTVSREDG-NH2)
Ki (Table 6, elongation and truncation scan of PIANP binding epitope, read-out: Ki (nM) mean ± SEM): 650 ± 9 nM

CC[C@H](C)[C@H](NC(=O)[C@H](Cc1ccccc1)NC(=O)[C@H](CCC(=O)O)NC(=O)[C@@H](NC(=O)[C@H](CCC(=O)O)NC(C)=O)[C@@H](C)O)C(=O)N[C@@H](C)C(=O)N[C@@H](Cc1c[nH]c2ccccc12)C(=O)NCC(=O)N1CCC[C@H]1C(=O)N[C@H](C(=O)NCC(=O)N[C@@H](CC(=O)O)C(=O)N[C@@H](CCC(=O)O)C(=O)N[C@@H](CC(=O)O)C(N)=O)[C@@H](C)CC [ETEFIAWGPIGDED] (Ac-ETEFIAWGPIGDED-NH2)
Ki [5]: 48 ± 2 nM

CC[C@H](C)[C@H](NC(=O)[C@H](Cc1ccccc1)NC(=O)[C@H](CCC(=O)O)NC(=O)[C@@H](NC(=O)[C@H](CCC(=O)O)NC(=O)[C@@H](NC(C)=O)[C@@H](C)O)[C@@H](C)O)C(=O)N[C@@H](C)C(=O)N[C@@H](Cc1c[nH]c2ccccc12)C(=O)NCC(=O)N1CCC[C@H]1C(N)=O (Ac-TETEFIAWGP-NH2)
Ki [6]: 574 ± 7 nM

CC[C@H](C)[C@H](NC(=O)[C@H](Cc1ccccc1)NC(=O)[C@H](CCC(=O)O)NC(=O)[C@@H](NC(=O)[C@H](CCC(=O)O)NC(C)=O)[C@@H](C)O)C(=O)N[C@@H](C)C(=O)N[C@@H](Cc1c[nH]c2ccccc12)C(=O)NCC(=O)N1CCC[C@H]1C(=O)N[C@H](C(=O)NCC(=O)N[C@@H](CC(=O)O)C(=O)N[C@@H](CCC(=O)O)C(=O)N[C@@H](C)C(N)=O)[C@@H](C)O (Ac-ETEFIAWGPTGDEA-NH2)
Ki [5]: 44 ± 1 nM

CC[C@H](C)[C@H](NC(=O)[C@H](Cc1c[nH]c2ccccc12)NC(=O)[C@H](CC(=O)O)NC(=O)[C@H](CC(=O)O)NC(=O)[C@H](CC(=O)O)NC(=O)[C@H](CCC(=O)O)NC(=O)[C@H](CCCNC(=N)N)NC(=O)[C@H](CCCNC(=N)N)NC(=O)[C@H](CCCNC(=N)N)NC(=O)[C@H](CCC(N)=O)NC(=O)[C@H](CCCNC(=N)N)NC(=O)[C@H](CCCNC(=N)N)NC(=O)[C@H](CCCCN)NC(=O)[C@H](CCCCN)NC(=O)[C@H](CCCNC(=N)N)NC(=O)CNC(=O)[C@H](Cc1ccc(O)cc1)NC(C)=O)C(=O)N[C@@H](CC(=O)O)C(=O)N[C@@H](Cc1c[nH]c2ccccc12)C(=O)N[C@@H](Cc1ccc(O)cc1)C(=O)N[C@@H](CC(=O)O)C(=O)N[C@@H](CO)C(=O)N[C@@H](CC(=O)O)C(=O)N[C@@H](CC(=O)O)C(=O)N[C@@H](CC(=O)O)C(N)=O [Tat-16] (Ac-YGRKKRRQRRREDDDWIDWYDSDDD-NH2)
Ki (CPP tagged peptides overview, SD1/2 binding affinity, mean ± SEM, n ≥ 3, read-out: Ki): 83 ± 1 nM
Ki (Table 14, CPPs tagged peptides, read-out: Ki (nM) mean ± SEM): 83.4 ± 1 nM

CC[C@H](C)[C@H](NC(=O)[C@H](Cc1ccccc1)NC(=O)[C@H](CCC(=O)O)NC(=O)[C@@H](NC(=O)[C@H](CCC(=O)O)NC(=O)[C@@H](NC(C)=O)[C@@H](C)O)[C@@H](C)O)C(=O)N[C@@H](C)C(=O)N[C@@H](Cc1c[nH]c2ccccc12)C(=O)NCC(=O)N1CCC[C@H]1C(=O)N[C@H](C(=O)NCC(N)=O)[C@@H](C)O (Ac-TETEFIAWGPTG-NH2)
Ki [6]: 248 ± 7 nM

CC(=O)N[C@@H](CCC(=O)O)C(=O)N[C@@H](CCC(=O)O)C(=O)N[C@@H](CC(=O)O)C(=O)N[C@@H](CC(=O)O)C(=O)N[C@@H](CO)C(=O)N[C@@H](CC(=O)O)C(=O)N[C@H](C(=O)N[C@@H](Cc1c[nH]c2ccccc12)C(=O)N[C@@H](Cc1c[nH]c2ccccc12)C(=O)NCC(=O)NCC(=O)N[C@@H](C)C(=O)N[C@@H](CC(=O)O)C(=O)N[C@H](C(=O)N[C@@H](CC(=O)O)C(N)=O)[C@@H](C)O)C(C)C (Ac-EEDDSDVWWGGADTD-NH2)
Ki [3]: 341 ± 10 nM

CC[C@H](C)[C@H](NC(=O)[C@H](Cc1ccccc1)NC(=O)[C@H](C)NC(=O)[C@@H](NC(=O)[C@H](CCC(=O)O)NC(C)=O)[C@@H](C)O)C(=O)N[C@@H](C)C(=O)N[C@@H](Cc1c[nH]c2ccccc12)C(=O)NCC(=O)N1CCC[C@H]1C(=O)N[C@H](C(=O)NCC(=O)N[C@@H](CC(=O)O)C(=O)N[C@@H](CCC(=O)O)C(=O)N[C@@H](CC(=O)O)C(N)=O)[C@@H](C)O [ETAFIAWGPTGDED] (Ac-ETAFIAWGPTGDED-NH2)
Ki [5]: 49 ± 2 nM

CC[C@H](C)[C@H](NC(=O)[C@H](C)NC(=O)[C@H](Cc1c[nH]c2ccccc12)NC(=O)[C@@H]1CCCN1C(C)=O)C(=O)N[C@H](C(=O)N[C@@H](Cc1c[nH]c2ccccc12)C(=O)NCC(=O)N(C)CC(=O)N[C@H](C(=O)N[C@H](C(=O)N[C@@H](CO)C(=O)N[C@@H](CCCNC(=N)N)C(=O)N[C@@H](CCC(=O)O)C(=O)N[C@@H](CC(=O)O)C(N)=O)C(C)C)[C@@H](C)O)C(C)C [PWAIVWG(N-Me-G)TVSRED] (Ac-PWAIVWG[Sar]TVSRED-NH2)
Ki [4]: 525 ± 22 nM
Ki (Table 13, peptides for affinity maturation, read-out: Ki (nM) mean ± SEM): 525 ± 22 nM

CC[C@H](C)[C@H](NC(=O)[C@H](C)NC(=O)[C@H](CO)NC(=O)[C@@H]1CCCN1C(C)=O)C(=O)N[C@H](C(=O)N[C@@H](Cc1c[nH]c2ccccc12)C(=O)NCC(=O)N1CCC[C@H]1C(=O)N[C@H](C(=O)N[C@H](C(=O)N[C@@H](CO)C(=O)N[C@@H](CCCNC(=N)N)C(=O)N[C@@H](CCC(=O)O)C(=O)N[C@@H](CC(=O)O)C(N)=O)C(C)C)[C@@H](C)O)C(C)C [PSAIVWGPTVSRED] (Ac-PSAIVWGPTVSRED-NH2)
Ki (Table 12, deep mutational scanning validation variants of PIANPWT, read-out: Ki (nM) mean ± SEM): 906 ± 20 nM
